ChEMBL document CHEMBL4007491, “Structure-based drug design of novel ASK1 inhibitors using an integrated lead optimization strategy” (Bioorg Med Chem Lett, 2017)
Values after ≈ are worked out from the molar mass of the structure shown.

Columns and labels:
[1] = target: Rho-associated protein kinase 1 (Homo sapiens, UniProt Q13464); test: Inhibition of recombinant human GST-tagged ROCK1 catalytic domain expressed in baculovirus expression system
[2] = target: T1, Ephrin type-A receptor 3 (Homo sapiens, UniProt P29320); test: Inhibition of recombinant human His-tagged EPHA3 cytoplasmic domain (569 to 976 residues) expressed in baculovirus expression system
T1 sequence (P29320 whole entry): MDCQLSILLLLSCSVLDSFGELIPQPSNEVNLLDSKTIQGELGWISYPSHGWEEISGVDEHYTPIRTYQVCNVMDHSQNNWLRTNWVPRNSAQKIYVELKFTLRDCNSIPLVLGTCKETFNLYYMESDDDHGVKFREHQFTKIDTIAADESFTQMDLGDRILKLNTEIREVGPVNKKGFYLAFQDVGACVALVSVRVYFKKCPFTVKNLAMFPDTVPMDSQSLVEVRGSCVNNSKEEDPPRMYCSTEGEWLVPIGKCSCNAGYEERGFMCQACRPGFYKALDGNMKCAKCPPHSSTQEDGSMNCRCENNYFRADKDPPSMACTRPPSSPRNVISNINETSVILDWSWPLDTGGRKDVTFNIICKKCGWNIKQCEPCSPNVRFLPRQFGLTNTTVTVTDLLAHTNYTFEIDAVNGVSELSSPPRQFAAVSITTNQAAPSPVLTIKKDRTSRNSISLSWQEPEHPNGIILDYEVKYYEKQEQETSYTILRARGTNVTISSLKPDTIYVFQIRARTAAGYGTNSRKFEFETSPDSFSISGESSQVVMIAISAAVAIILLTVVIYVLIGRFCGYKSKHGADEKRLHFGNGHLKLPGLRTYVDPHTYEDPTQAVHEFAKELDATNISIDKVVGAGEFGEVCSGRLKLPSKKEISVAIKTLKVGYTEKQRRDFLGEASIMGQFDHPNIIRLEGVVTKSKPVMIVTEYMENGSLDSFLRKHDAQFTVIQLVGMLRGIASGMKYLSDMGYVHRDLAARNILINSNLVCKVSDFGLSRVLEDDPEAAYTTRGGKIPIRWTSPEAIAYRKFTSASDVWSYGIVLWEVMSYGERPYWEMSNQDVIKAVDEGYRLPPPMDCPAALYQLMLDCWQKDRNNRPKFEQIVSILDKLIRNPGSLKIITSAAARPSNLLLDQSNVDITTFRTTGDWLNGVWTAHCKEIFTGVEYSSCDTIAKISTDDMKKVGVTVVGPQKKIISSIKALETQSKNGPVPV

[3] = target: T2, CYP1A2 (Homo sapiens, UniProt P05177); test: Inhibition of CYP1A2 (unknown origin) at 10 uM relative to control; format: ADME
T2 sequence (P05177 whole entry): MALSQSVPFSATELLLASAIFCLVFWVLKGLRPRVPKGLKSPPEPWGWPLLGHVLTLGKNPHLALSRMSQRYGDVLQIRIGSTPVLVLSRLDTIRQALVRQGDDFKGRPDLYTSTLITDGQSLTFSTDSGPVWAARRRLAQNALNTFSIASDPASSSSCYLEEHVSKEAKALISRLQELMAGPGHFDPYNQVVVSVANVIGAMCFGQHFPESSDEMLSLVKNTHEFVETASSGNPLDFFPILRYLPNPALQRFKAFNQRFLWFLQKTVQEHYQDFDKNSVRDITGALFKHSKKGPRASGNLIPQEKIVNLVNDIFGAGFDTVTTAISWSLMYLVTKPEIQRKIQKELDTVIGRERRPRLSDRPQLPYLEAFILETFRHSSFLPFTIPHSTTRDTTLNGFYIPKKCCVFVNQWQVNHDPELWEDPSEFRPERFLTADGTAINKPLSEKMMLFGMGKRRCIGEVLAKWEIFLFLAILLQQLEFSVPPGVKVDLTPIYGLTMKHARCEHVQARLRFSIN

[4] = target: Glycogen synthase kinase-3 beta (Homo sapiens, UniProt P49841); test: Inhibition of recombinant full length human His-tagged GSK3B expressed in baculovirus expression system
Glycogen synthase kinase-3 beta, sequence (P49841 whole entry): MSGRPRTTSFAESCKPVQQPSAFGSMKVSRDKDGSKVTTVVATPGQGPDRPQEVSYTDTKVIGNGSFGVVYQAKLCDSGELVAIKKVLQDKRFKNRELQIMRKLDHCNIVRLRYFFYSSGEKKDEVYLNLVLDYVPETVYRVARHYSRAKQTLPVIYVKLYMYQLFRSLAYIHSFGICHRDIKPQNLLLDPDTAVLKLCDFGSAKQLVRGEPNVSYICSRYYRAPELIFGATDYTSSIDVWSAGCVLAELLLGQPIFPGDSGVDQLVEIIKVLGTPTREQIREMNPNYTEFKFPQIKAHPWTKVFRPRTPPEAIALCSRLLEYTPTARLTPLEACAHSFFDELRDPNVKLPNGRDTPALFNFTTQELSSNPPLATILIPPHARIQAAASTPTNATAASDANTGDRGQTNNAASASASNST

[5] = target: T3, Mitogen-activated protein kinase kinase kinase 5 (Homo sapiens, UniProt Q99683); test: Inhibition of ASK1 (unknown origin) assessed as reduction in JNK phosphorylation by cell based assay
T3 sequence (Q99683 whole entry): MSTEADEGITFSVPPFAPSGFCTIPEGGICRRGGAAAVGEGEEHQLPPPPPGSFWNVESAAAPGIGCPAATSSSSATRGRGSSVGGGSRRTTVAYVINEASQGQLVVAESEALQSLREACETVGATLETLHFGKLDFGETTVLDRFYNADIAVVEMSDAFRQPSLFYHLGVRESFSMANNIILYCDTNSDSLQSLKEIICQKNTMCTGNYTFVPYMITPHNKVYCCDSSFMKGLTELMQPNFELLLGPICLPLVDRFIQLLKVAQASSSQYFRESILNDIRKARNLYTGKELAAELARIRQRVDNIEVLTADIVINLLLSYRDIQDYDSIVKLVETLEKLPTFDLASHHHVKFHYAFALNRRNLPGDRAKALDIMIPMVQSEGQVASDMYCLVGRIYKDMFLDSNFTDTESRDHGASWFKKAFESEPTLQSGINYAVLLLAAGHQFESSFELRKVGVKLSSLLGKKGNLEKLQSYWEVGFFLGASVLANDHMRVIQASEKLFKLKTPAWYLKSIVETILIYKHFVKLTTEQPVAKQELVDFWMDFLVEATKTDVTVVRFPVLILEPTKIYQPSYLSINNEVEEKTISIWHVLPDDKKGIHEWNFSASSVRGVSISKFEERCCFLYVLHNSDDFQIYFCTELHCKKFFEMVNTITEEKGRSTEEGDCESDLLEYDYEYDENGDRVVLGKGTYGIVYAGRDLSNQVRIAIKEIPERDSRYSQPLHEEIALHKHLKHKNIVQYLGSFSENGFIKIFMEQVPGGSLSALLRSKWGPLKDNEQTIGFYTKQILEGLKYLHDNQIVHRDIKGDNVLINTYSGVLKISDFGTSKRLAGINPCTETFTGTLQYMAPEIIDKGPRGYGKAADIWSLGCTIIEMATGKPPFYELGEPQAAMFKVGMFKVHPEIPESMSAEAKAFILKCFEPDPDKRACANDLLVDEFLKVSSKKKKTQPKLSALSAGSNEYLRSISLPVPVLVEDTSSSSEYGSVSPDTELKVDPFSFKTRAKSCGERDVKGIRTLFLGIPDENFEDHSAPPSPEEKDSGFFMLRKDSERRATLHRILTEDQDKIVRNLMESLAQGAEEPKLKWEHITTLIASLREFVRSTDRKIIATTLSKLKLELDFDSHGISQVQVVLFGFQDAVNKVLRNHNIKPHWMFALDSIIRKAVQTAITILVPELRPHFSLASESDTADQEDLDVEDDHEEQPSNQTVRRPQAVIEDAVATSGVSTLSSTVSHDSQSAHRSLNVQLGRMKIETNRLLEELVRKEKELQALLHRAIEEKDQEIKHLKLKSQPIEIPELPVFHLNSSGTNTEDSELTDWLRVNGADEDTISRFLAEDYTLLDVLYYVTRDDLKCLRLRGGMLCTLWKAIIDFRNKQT

[6] = Thermodynamic solubility of the compound in pH 6.8 solution; format: physicochemical; conditions: read-out: Therm_solubility

Rho-associated protein kinase 1, sequence (Q13464 whole entry, the tested form may be a part): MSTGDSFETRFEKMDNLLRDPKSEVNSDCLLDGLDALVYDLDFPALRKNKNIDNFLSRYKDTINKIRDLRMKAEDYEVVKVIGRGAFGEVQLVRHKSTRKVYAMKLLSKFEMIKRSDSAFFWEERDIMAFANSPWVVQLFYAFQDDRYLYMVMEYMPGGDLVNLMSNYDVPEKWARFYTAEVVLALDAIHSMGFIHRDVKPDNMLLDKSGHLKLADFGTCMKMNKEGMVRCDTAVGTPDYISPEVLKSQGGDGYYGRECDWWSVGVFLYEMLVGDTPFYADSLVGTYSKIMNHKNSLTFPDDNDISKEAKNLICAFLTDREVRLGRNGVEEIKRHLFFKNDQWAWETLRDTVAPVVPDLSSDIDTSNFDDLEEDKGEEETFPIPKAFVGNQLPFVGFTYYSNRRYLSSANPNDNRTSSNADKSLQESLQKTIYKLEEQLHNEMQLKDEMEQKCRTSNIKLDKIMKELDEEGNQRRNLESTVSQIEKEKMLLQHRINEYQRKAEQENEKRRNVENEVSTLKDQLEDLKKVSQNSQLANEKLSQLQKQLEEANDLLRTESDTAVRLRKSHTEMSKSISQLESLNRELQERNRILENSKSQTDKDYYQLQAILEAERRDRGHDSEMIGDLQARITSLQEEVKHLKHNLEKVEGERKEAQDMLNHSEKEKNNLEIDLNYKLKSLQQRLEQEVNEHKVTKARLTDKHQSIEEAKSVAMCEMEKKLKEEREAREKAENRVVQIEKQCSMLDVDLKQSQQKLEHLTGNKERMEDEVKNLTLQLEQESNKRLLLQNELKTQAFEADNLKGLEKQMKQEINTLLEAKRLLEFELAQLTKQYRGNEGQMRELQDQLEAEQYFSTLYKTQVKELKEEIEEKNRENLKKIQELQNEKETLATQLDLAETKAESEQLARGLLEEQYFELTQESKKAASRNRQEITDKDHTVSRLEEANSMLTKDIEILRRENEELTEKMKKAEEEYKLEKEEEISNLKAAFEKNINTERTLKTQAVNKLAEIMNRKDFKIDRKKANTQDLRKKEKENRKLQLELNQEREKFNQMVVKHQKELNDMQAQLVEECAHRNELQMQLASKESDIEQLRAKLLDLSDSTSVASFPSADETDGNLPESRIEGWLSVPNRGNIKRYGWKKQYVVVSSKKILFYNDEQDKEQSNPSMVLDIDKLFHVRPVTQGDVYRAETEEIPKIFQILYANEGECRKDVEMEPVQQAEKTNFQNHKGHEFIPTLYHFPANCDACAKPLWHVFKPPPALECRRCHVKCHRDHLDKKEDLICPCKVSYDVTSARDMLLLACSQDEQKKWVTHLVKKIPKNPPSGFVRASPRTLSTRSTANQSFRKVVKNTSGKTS

With `COCCn1cc(NC(=O)c2csc(-c3nncn3C(C)C)n2)cn1` the IC50 [1] was 5370 nM, the IC50 [2] was > 20000 nM and the inhibition at 10 µM [3] was 8%. It also gave an IC50 [4] of 457 nM, an EC50 [5] of 60 nM and a solubility thermodynamic [6] of 208 µM (≈ 75.2 µg/mL).
